We go through 14 compounds from patent US8669254B2, “Pyridine, pyridazine, pyrimidine or pyrazine carboxamides as HDL-cholesterol raising agents” (Hoffman-La Roche Inc., priority 2010, dated 2014).

One data set has as its target T1, human CB2 receptor (Homo sapiens, UniProt P34972).
T1 construct: expressed in transfected cells; host or cells: human embryonic kidney (HEK) cells, Semliki Forest Virus system, membrane preparation
Kind of data set: CB2 receptor affinity ([3H]-CP-55,940 displacement). In kind it is binding. The settings on record: HEK cell membranes, radioligand [3H]-CP-55,940. The procedure: The affinity of the compounds of the invention for cannabinoid CB2 receptors was determined using membrane preparations of human embryonic kidney (HEK) cells in which the human CB2 receptor is transiently transfected using a Semliki Forest Virus system in conjunction with [^3H]-CP-55,940 as radioligand. After incubation of freshly prepared cell membrane preparation with the [^3H]-ligand, with or without addition of compounds of the invention, separation of bound and free ligand was performed by filtration over glass fiber filters. Radioactivity on the filter was measured by scintillation counting.
(§1) The ability of the compounds to displace the radioligand [^3H]-CP-55,940 was measured at a concentration of 10 μM and values provided as [% inhibition @ 10 μM] both for the CB 1 and CB2 receptor assay, The lower % inhibition is, the lower the likelihood of side effects based on CB1 or CB2 receptor inhibition is.

The next data set addresses T2, human CB1 receptor (Homo sapiens, UniProt P21554).
T2 construct: expressed in transfected cells; host or cells: human embryonic kidney (HEK) cells, Semliki Forest Virus system, membrane preparation
The data set is described as follows: CB1 receptor affinity ([3H]-CP-55,940 displacement). In kind it is binding. To be noted: read-out: CB1 receptor affinity [% inhibition @ 10 μM]. The procedure:
The affinity of the compounds of the invention for cannabinoid receptors was determined using membrane preparations of human embryonic kidney (HEK) cells in which the human CB1 receptor is transiently transfected using a Semliki Forest Virus system in conjunction with [3H]-CP-55,940 as radioligand. After incubation of freshly prepared cell membrane preparation with the [^3H]-ligand, with or without addition of compounds of the invention, separation of bound and free ligand was performed by filtration over glass fiber filters. Radioactivity on the filter was measured by scintillation counting.
as §1

For another data set, the system named is ABCA1 protein. The data set is described as follows: Detection of upregulation of ABCA1 protein in cells (ApoA-I binding, high content image analysis). In kind it is cell-based. The settings on record: THP-1 macrophage cells; for pEC50: ABCA1 protein detection assay; for % increase of ABCA1 at 3 μM: compound at 3 μM, 24 hrs. As to the method: The ability of compounds of the invention to increase the level of ABCA1 protein is determined in replicate cultures of THP-1 macrophage cells in 96-well microplates. Cells are plated at an initial density of 100,000 cells/well in 100 μl medium and differentiated to adherent macrophages with the addition of PMA (100 nM) for 68 hrs in 10% fetal bovine serum, 3 μl/L of b-mercaptoethanol, RPMI-1640 medium. Then, cells are incubated with RPMI-1640 medium containing 1% FCS, 25 μg/ml acetylated LDL, for 24 hours at 37°. Following incubation with acetylated LDL, cells are washed twice with 50 μl PBS and incubated with 100 μl of RPMI-1640 medium containing the compound of interest solubilized in DMSO for an additional 24 hrs. The final DMSO concentration in presence of cells is maintained at 0.5%. ApoA-I binding assay using High Content Image Analysis is initiated by replacing with fresh medium, RPMI without Phenol Red, 0.2% BSA containing AlexaFluor®647 labeled ApoA-I for 2 h/37° C./5% CO2. Then, cells are fixed with 4% Formaldehyde in PBS (15 min, RT). Following Nuclei are stained with Hoechst solution (3 μM PBS) and Cytoplasm with Cell Mask Blue (2 μg/ml PBS), 15 min, RT. Finally the stained cells are fixed with a second round of formaldehyde treatment. Fixed stained cells are washed and kept in PBS at 4° C. and can be read immediately until one month after preparation.
The Alexa Fluor 647-labeled Apolipoprotein A-I (20 nM) was prepared as follows: Human recombinant Apolipoprotein A-I (ApoA-I) was exchanged to a buffer of 0.02 M NaHCO3 at pH 8.2 on an NAP desalting column (GE Healthcare) and brought to a concentration to 40 μM (1.13 mg/ml) by adjustment with the same buffer. The ApoA-I was fluorescently labeled by incubation with Alexa Fluor carboxylic acid succimidyl ester (Alexa Fluor 647, Invitrogen A-20006) at a 2:1 molar ratio (Alexa to ApoA-I) for 1 h under shaking at RT). The remaining unconjugated label was removed by buffer exchange to 0.02M NaHCO3 at pH 8.2.
Imaging and data collection were performed on an OPERA confocal microplate imaging reader using a 20× water immersion objective and UV360 or 405 laser to identify the cell nuclei and a 635 laser to identify the fluorescent ApoA-I. Eight fields of view are captured per well. Image capture and analysis was performed with the Acapella software. Background fluorescence detected in control wells without ApoA-I was subtracted.
Using XLfit3 program (ID Business Solutions Ltd. UK), the model 205 for Dose Response One Site is used to calculate the EC50 values. […] Particularly, the compounds of the present invention have EC50 values in a range of 0.1 μM to 3 μM.

Setting [1] is: 10 μM, HEK cell membranes, radioligand [3H]-CP-55,940.

pEC50: −log10 of the molar value. Like-named read-outs stand apart in the source and are kept apart here.

T2 sequence (P21554 whole entry): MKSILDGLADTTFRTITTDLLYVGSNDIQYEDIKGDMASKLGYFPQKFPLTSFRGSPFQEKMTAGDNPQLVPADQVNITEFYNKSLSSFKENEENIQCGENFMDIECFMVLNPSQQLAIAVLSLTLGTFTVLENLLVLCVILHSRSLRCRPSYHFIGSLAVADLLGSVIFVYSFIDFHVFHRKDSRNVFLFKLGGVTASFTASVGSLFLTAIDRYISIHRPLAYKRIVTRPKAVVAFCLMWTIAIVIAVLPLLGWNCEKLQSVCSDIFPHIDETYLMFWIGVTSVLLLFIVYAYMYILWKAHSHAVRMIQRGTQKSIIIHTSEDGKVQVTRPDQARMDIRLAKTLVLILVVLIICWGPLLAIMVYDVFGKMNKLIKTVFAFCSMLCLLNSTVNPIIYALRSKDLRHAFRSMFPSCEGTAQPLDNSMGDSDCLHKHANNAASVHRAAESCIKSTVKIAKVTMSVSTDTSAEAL
T1 sequence (P34972 whole entry): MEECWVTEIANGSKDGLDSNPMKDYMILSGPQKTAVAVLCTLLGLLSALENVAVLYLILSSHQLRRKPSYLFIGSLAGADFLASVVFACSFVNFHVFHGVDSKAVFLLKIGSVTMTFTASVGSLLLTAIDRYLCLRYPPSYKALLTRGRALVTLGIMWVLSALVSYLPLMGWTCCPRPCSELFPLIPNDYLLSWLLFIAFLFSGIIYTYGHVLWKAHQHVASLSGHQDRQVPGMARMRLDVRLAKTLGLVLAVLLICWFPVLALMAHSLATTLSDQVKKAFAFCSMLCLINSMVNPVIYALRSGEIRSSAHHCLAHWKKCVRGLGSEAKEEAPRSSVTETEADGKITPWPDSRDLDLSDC

`CO/N=C(/CNC(=O)c1cc(-c2ccc(Cl)c(Cl)c2)c(OCC(F)(F)F)nn1)C1CC1` [Example 23, (E)-N-(2-cyclopropyl-2-(methoxyimino)ethyl)-5-(3,4-dichlorophenyl)-6-(2,2,2-trifluoroethoxy)pyridazine-3-carboxamide] showed a melting point of 147 to 150 °C. In addition, at human CB2 receptor, the inhibition at 10 µM was 14%. Also, on human CB1 receptor (setting [1]), the inhibition at 10 µM was -2%. For the same compound, in the data set on ABCA1 protein, the pEC50 is 6.27 and the “% increase of ABCA1 at 3 μM” value was found to be 88% @ 3 μM.
Turning to `CO/N=C(/CNC(=O)c1cnc(O[C@@H](C)C(F)(F)F)c(-c2ccc(Cl)cc2)n1)C1CC1` [Example 26, (S,E)-6-(4-Chlorophenyl)-N-(2-cyclopropyl-2-(methoxyimino)ethyl)-5-(1,1,1-trifluoropropan-2-yloxy)pyrazine-2-carboxamide], the melting point is 149 to 152 °C. Besides, the inhibition at 10 µM on human CB2 receptor was 9%. For the same compound, the inhibition at 10 µM at human CB1 receptor (setting [1]) was determined as 13%. Also, in the data set on ABCA1 protein, the pEC50 is 5.95 and the “% increase of ABCA1 at 3 μM” value is 79% @ 3 μM.
Compound `CO/N=C1\CCCC[C@@H]1NC(=O)c1cnc(O[C@@H](C)C(F)(F)F)c(-c2ccc(Cl)cc2)n1` [Example 27, 6-(4-Chlorophenyl)-N-((S,E)-2-(methoxyimino)cyclohexyl)-5-((S)-1,1,1-trifluoropropan-2-yloxy)pyrazine-2-carboxamide] came in with a melting point of 120 to 123 °C. For the same compound, the inhibition at 10 µM on human CB2 receptor was 21%. The inhibition at 10 µM on human CB1 receptor (setting [1]) worked out at 21%. Moreover, the “% increase of ABCA1 at 3 μM” value in the data set with ABCA1 protein was found to be 65% @ 3 μM.
Compound `CO/N=C(/CNC(=O)c1cnc(OCC(F)(F)F)c(-c2ccc(Cl)c(Cl)c2)c1)C(F)(F)F` [Example 15, 5-(3,4-Dichloro-phenyl)-6-(2,2,2-trifluoro-ethoxy)-N-{3,3,3-trifluoro-2-[(Z)-methoxyimino]-propyl}-nicotinamide] showed a melting point of 124 to 126 °C. For the same compound, at human CB2 receptor, the inhibition at 10 µM was 23.2%. In addition, at human CB1 receptor (setting [1]), the inhibition at 10 µM is 32%. Moreover, the “% increase of ABCA1 at 3 μM” value with ABCA1 protein was determined as 50.5% @ 3 μM.
The compound `CO/N=C1\CCCC[C@@H]1NC(=O)c1cc(-c2ccc(Cl)cc2)c(O[C@@H](C)C(F)(F)F)cn1` [Example 29, 4-(4-Chlorophenyl)-N-((S,E)-2-(methoxyimino)cyclohexyl)-5-((S)-1,1,1-trifluoropropan-2-yloxy)picolinamide] gave a melting point of 123 to 125 °C. The inhibition at 10 µM at human CB2 receptor came to 33%. At human CB1 receptor (setting [1]), the inhibition at 10 µM was determined as 35.5%. Moreover, the “% increase of ABCA1 at 3 μM” value in the data set with ABCA1 protein was 53.4% @ 3 μM.
For the compound `CO/N=C1\CCCC[C@@H]1NC(=O)c1cnc(O[C@@H](C)C(F)(F)F)c(-c2ccc(Cl)cc2)c1` [Example 30, 5-(4-Chlorophenyl)-N-((S,E)-2-(methoxyimino)cyclohexyl)-6-((S)-1,1,1-trifluoropropan-2-yloxy)nicotinamide], the melting point was 119 to 121 °C. The inhibition at 10 µM at human CB2 receptor was determined as 12.7%. At human CB1 receptor (setting [1]), the inhibition at 10 µM stood at 24.1%. Also, in the data set on ABCA1 protein, the pEC50 is 6.74 and the “% increase of ABCA1 at 3 μM” value stood at 91.3% @ 3 μM.
`CO/N=C1\CCCC[C@@H]1NC(=O)c1ncc(O[C@@H](C)C(F)(F)F)c(-c2ccc(Cl)cc2)n1` [Example 28, 4-(4-Chlorophenyl)-N-((S,E)-2-(methoxyimino)cyclohexyl)-5-((S)-1,1,1-trifluoropropan-2-yloxy)pyrimidine-2-carboxamide]: the melting point is 180 to 182 °C. The inhibition at 10 µM at human CB2 receptor came out at 18%. Besides, the inhibition at 10 µM on human CB1 receptor (setting [1]) came out at 34.4%. Besides, in the data set with ABCA1 protein, the pEC50 was 6.11 and the “% increase of ABCA1 at 3 μM” value was determined as 86.5% @ 3 μM.
For `CO/N=C(\CNC(=O)c1cnc(OCC(F)(F)F)c(-c2ccc(Cl)cc2)c1)C1CC1` [Example 13, 5-(4-Chloro-phenyl)-N-{2-cyclopropyl-2-[(Z)-methoxyimino]-ethyl}-6-(2,2,2-trifluoro-ethoxy)-nicotinamide], the results for the inhibition at 10 µM on human CB2 receptor and at human CB1 receptor (setting [1]) were 1.52% and 48.6%, respectively. Further, the “% increase of ABCA1 at 3 μM” value in the data set with ABCA1 protein stood at 66.2% @ 3 μM.
Turning to `O=C(NC/C(=N/O)C1CC1)c1cnc(OCC(F)(F)F)c(-c2ccc(Cl)c(Cl)c2)c1` [Example 11, N-(E)-(2-Cyclopropyl-2-hydroxyimino-ethyl)-5-(3,4-dichloro-phenyl)-6-(2,2,2-trifluoro-ethoxy)-nicotinamide], the values for the inhibition at 10 µM at human CB2 receptor and at human CB1 receptor (setting [1]) were 44.3% and 30%, respectively. The “% increase of ABCA1 at 3 μM” value in the data set with ABCA1 protein is 55.9% @ 3 μM.
In the case of `CO/N=C1\CCCC[C@@H]1NC(=O)c1ccc(OCC(F)(F)F)c(-c2ccc(Cl)cc2)n1` [Example 10, 6-(4-Chloro-phenyl)-5-(2,2,2-trifluoro-ethoxy)-pyridine-2-carboxylic acid {(S)-2-[(E)-methoxyimino]-cyclohexyl}-amide], the inhibition at 10 µM worked out at 19.2% at human CB2 receptor and 0.74% on human CB1 receptor (setting [1]). The compound also gave a pEC50 in the data set on ABCA1 protein of 5.82. Moreover, the “% increase of ABCA1 at 3 μM” value in the data set with ABCA1 protein is 45.6% @ 3 μM.
On to `NC(=O)CO/N=C1\CCCC[C@@H]1NC(=O)c1cnc(OCC2CC2)c(-c2ccc(Cl)cc2)c1` [Example 5, N-{(S)-2-[(E)-Carbamoylmethoxyimino]-cyclohexyl}-5-(4-chloro-phenyl)-6-cyclopropylmethoxy-nicotinamide], for which the inhibition at 10 µM at human CB2 receptor turned out to be 15.1%. Besides, the inhibition at 10 µM at human CB1 receptor (setting [1]) came out at 33.1%. Moreover, in the data set with ABCA1 protein, the pEC50 was 5.69 and the “% increase of ABCA1 at 3 μM” value came out at 65.2% @ 3 μM.
`CO/N=C1\CCCC[C@@H]1NC(=O)c1cnc(OCC2CC2)c(-c2ccc(Cl)cc2)c1` [Example 1, 5-(4-Chloro-phenyl)-6-cyclopropylmethoxy-N-{(S)-2-[(E)-methoxyimino]-cyclohexyl}-nicotinamide]: at human CB2 receptor, the inhibition at 10 µM is 17.2%. Moreover, the inhibition at 10 µM at human CB1 receptor was 34%. Also, in the data set on ABCA1 protein, the pEC50 is 6.15 and the “% increase of ABCA1 at 3 μM” value worked out at 87.2% @ 3 μM.
`CO/N=C(/CNC(=O)c1cc(-c2ccc(Cl)cc2)c(OCC(F)(F)F)cn1)C1CC1` [Example 32, (E)-4-(4-chlorophenyl)-N-(2-cyclopropyl-2-(methoxyimino)ethyl)-5-(2,2,2-trifluoroethoxy)picolinamide]: the inhibition at 10 µM on human CB2 receptor stood at 29%; on human CB1 receptor (setting [1]) it was 15%. In the data set with ABCA1 protein, the “% increase of ABCA1 at 3 μM” value worked out at 53% @ 3 μM.
Turning to `CO/N=C(/CNC(=O)c1ccc(OCC(F)(F)F)c(-c2ccc(Cl)cc2)n1)C(F)(F)F` [Example 21, 6-(4-Chloro-phenyl)-5-(2,2,2-trifluoro-ethoxy)-pyridine-2-carboxylic acid {3,3,3-trifluoro-2-[(Z)-methoxyimino]-propyl}-amide], the inhibition at 10 µM came out at 31% at human CB2 receptor and 41% at human CB1 receptor (setting [1]). In addition, in the data set on ABCA1 protein, the “% increase of ABCA1 at 3 μM” value is reported as 50% @ 3 μM.
